Results reported in patent US9820483B2, “Microbial composition” (Rohm and Haas Company, priority 2011, dated 2017).

Experiments:
[1] = tested on: Staphylococcus aureus (10788 strain); assay: Antimicrobial efficacy of actives against S. aureus in water, 15 seconds contact, NMBS; type: cell-based
Procedure: Selected materials were also tested against a representative Gram positive Staphylococcus aureus.
The following assay describes the testing of 8 materials using 6 dilutions across half of a 96-well micro titre plate (MTP). Using this approach it is possible to assay 16 actives (without replicates) with one full dilution plate, replicating this set up in two halves of the plate columns, 1-6 and 7-12.
Bacterial stock (30 μl) was then added to the prepared 270 μl of the solution of actives in the Screening Plate and mixed, using a multichannel pipette with 8 tips to aspirate and dispense the same volume of bacterial stock in parallel to 8 wells in rows A-H. After a contact time of 15 seconds, the mixtures were quenched by transferring 30 μl volumes of the mixtures into the 270 μl D/E neutralising solution in the prepared dilution plate, using aspiration to mix. After exactly 5 minutes in the D/E neutralising solution, […] were transferred from column 1 to column 2 of the Dilution MTP and mixed, before transferring further 30 μl volumes from column 2 into column 3. This process was repeated serially diluting the bacteria across the plate to column 6.
30 μl volumes from each well in the Dilution MTP were transferred onto pre-labelled segment of Tryptone Soya Agar (TSA) plates starting from the lowest bacterial concentration (highest dilution, column 6) to the highest bacterial concentration (column 1). The TSA plates were allowed to stand for ca. 2 hours so that the 30 μl inocula spots could dry and the plates were then inverted and incubated overnight at 37° C. before enumerating the bacterial colonies at the labelled dilutions to determine the effects of the actives on bacterial growth.
Mean bacterial survival numbers NMBS (expressed in Log CFU/ml) are obtained by first determining the segment of the TSA plate where the number of bacterial colonies is countable. From the colony number in this segment. NMBS is calculated by the formula: NMBS=log {Ncol·10^DF·100/3} Here, Ncol is the colony count, and DF is the dilution factor taken from the MTP-well corresponding to the TSA plate segment (i.e. DF may range from 1 for the quench, to 6 for the highest dilution). The factor 100/3 is a conversion factor from the volume of the inocula spot to one milliliter.
Every assay test was performed in triplicate.
Thus, a value of NMBS as of about 7 corresponds to a count of about […] from the fifth dilution well, i.e. with DF=5. Such a count of about 7 is generally observed when bacteria are exposed to non-biocidal materials. In case no surviving colonies are observed in any segment of the TSA plate, this is interpreted as complete kill and a value of NMBS=0 is reported.
S. aureus Bacterial stock was prepared as shown below and the antibacterial efficacy of the active was carried out as explained earlier for E. Coli.
An overnight culture of Staphylococcus aureus (10788 strain) was inoculated onto a Tripticase Soy Agar (TSA) plate and grown for ca. 18 hrs at 37° C. The culture of S. aureus was washed from the plate using sterile saline (0.85% NaCl) solution and a sterile spreader and suspended in 50 ml saline. This suspension was separated into equal volumes and centrifuged at 4000 rpm for 15 minutes. Following centrifugation the pellet was re-suspended in saline to give a final concentration of 0.35 OD620 equivalent to about 10^8 cells per milliliter for this particular organism. Here. OD620 indicates the absorbance of a sample in a cuvette of 1.0 cm path length at a wavelength of 620 nm. This bacterial stock was used for assaying against antimicrobial actives (in triplicate).

[2] = tested on: S. aureus ATCC 6538; assay: Synergy of terpinyl alcohols with phenolic compounds in water, 15 seconds contact, plate count log reduction; type: cell-based, Staphylococcus aureus; conditions: […] alone
Procedure: Liquid actives were used directly. Solid actives were dissolved in alcohol and a 50% stock was made.
The culture was grown overnight in Tryptone soya agar. It was suspended in saline (0.85% NaCl) to a con. of 1.5×10^8-5×10^8 cells/ml
To 9 ml water the actives were added to give the desired concentration. 1 ml of the culture was added and mixed. After 15 seconds contact 1 ml aliquot was removed and added to a neutraliser and kept for 5 minutes. A control of untreated cells was similarly processed. It was then diluted and plated. The plates were incubated at 37° C. for 24 hours. The colonies on the plates were counted. The counts were converted to log10. The log. no. of survivors was determined and log reduction calculated.

[3] = tested on: E. coli ATCC #10536; assay: Synergy test: high resolution MBC microtiter plate assay in phosphate buffer containing 35% dipropylene glycol, 15 seconds contact; type: cell-based, Escherichia coli; conditions: E. coli 10536, complete kill in 15 seconds, phosphate buffer with 35% DPG
From the text: One measure of synergy is the industrially accepted method described by Kull, F. C.; Eisman. P. C.; Sylwestrowicz, H. D. and Mayer, R. L., in Applied Microbiology 9:538-541 (1961), using the ratio determined by the formula: Qa/QA÷Qb/QB=Synergy Index (“SI”) wherein: QA=concentration of compound A (first component) in percent, acting alone, which produced an end point (MBC of Compound A). […]=concentration of compound A in percent, in the mixture, which produced an end point. QB=concentration of compound B (second component) in percent, acting alone, which produced an end point (MBC of Compound B). Qb=concentration of compound B in percent, in the mixture, which produced an end point.
When the sum of Qa/QA and Qb/QB is greater than one, antagonism is indicated. […] The lower the SI, the greater is the synergy shown by that particular mixture. The minimum biocidal concentration (MBC) of a microbicide is the lowest concentration tested under a specific set of conditions that provides complete kill of the tested microorganisms.
Synergy tests were conducted using standard microtiter plate assays with phosphate buffer containing 35% dipropylene glycol (DPG). In this method, a wide range of combinations of chemicals was tested by conducting high resolution MBC assays of Component (A) in the presence of various concentrations of Component (B). High resolution MBCs were determined by adding varying amounts of microbicide to one column of a microtiter plate and doing subsequent ten-fold dilutions using an automated liquid handling system to obtain a series of closely spaced endpoints. The MBC plate was inoculated one column at a time with the test microorganism. An aliquot of the inoculated well was transferred at 15 seconds to a plate containing a neutralizing agent (D/E Neutralizing Broth), mixed and held for 5 minutes before being transferred to a growth plate containing trypticase soy broth (TSB). The TSB plate was incubated at 37° C. and read for the presence/absence of growth at 24 hours. The lowest level tested that provided complete kill (as evidenced by no growth in the microtitre plate) of the test organisms in 15 seconds is the minimum biocidal concentration (MBC).
The synergy of the combinations of the present invention was determined against a bacterium, Esherichia coli (E. coli—ATCC #10536), at a concentration of approximately 1×10^8 bacteria per mL. This microorganism is representative of natural contaminants in many consumer and industrial applications.

C=C(C)C1CCC(C)C(O)C1 (stereo not shown) [2-methyl-5-(prop-1-en-2-yl)cyclohexanol]
NMBS ([1]; 0.5% w/v alone, S. aureus, 15 s): 7.34 log CFU/ml | MBC ([1]; component alone, against S. aureus, in water): >1.5 % w/v | Log reduction S. aureus ATCC 6538 [2]: −0.15 | MBC of the component acting alone (QA or QB; Qa or Qb with the other component at 0) [3]: 0.5 weight %
